Measurements: PubChem BioAssay (NCI)
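Cultured in 96-well plates, cells were exposed to test compound for 48 hours across five concentrations. Here, GI50 denotes the concentration required for 50% inhibition of growth. TGI denotes the concentration required for complete inhibition of growth.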

Columns and labels:
Assay in all cases: growth of human tumour cells (NCI), 48 h
SK-OV-3 ovarian = test system: SK-OV-3 ovarian
OVCAR-3 ovarian = test system: OVCAR-3 ovarian
MOLT-4 leukemia = test system: MOLT-4 leukemia
HCC-2998 colon = test system: HCC-2998 colon
A549 NSCLC = test system: A549 NSCLC
MDA-MB-231 breast = test system: MDA-MB-231 breast
U251 CNS = test system: U251 CNS
A498 renal = test system: A498 renal
BT-549 breast = test system: BT-549 breast
M14 melanoma = test system: M14 melanoma

Compound | GI50 (SK-OV-3 ovarian) [µM] | TGI (SK-OV-3 ovarian) [µM] | GI50 (OVCAR-3 ovarian) [µM] | TGI (OVCAR-3 ovarian) [µM] | GI50 (MOLT-4 leukemia) [µM] | TGI (MOLT-4 leukemia) [µM] | GI50 (HCC-2998 colon) [µM] | TGI (HCC-2998 colon) [µM] | GI50 (A549 NSCLC) [µM] | TGI (A549 NSCLC) [µM] | GI50 (MDA-MB-231 breast) [µM] | TGI (MDA-MB-231 breast) [µM] | GI50 (U251 CNS) [µM] | TGI (U251 CNS) [µM] | GI50 (A498 renal) [µM] | TGI (A498 renal) [µM] | GI50 (BT-549 breast) [µM] | TGI (BT-549 breast) [µM] | GI50 (M14 melanoma) [µM] | TGI (M14 melanoma) [µM]
C=C1[C@@H](O)O[C@H]2[C@H]1C[C@H](OC(C)=O)[C@]13C(=O)O[C@H]4C[C@](C)(O)[C@H]([C@H]41)C31C=C(C)[C@]2(O)O1 | > 100 | > 100 | 7.43 | 32.6 | 80.6 | > 100 | 22.5 | 76.2 | > 100 | > 100 | 34.9 | > 100 | 24.2 | 64.7 |  |  |  |  |  | 
O=c1c2cc(F)ccc2sc2c(NCCCNCCO)nc3ccccc3c12 |  |  | 1.9 | 3.55 |  |  | 1.69 | 3.34 | 1.79 | 3.78 | 1.56 | 3.03 |  |  | 1.67 | 3.32 | 8.7 | 22 | 1.87 | 3.62
Cc1cccc(NC(=O)/C(=N\N)C(c2cnc3ccc([N+](=O)[O-])cc3n2)[N+](=O)[O-])c1C (stereo not given) |  | > 100 |  | > 100 |  | > 100 |  | > 100 |  | > 100 |  |  |  |  |  |  |  |  |  | > 100
COc1cc(C2(C)SCCCS2)cc(OC)c1OC |  | > 100 |  | > 100 |  | > 100 |  | > 100 |  | > 100 |  |  |  | > 100 |  | > 100 |  |  |  | > 100
Cc1[nH]nc(-c2ccon2)c1N=O |  | 89.2 |  | 33.7 |  | 6.18 |  |  |  | 57.6 |  | 32.4 |  | 32.8 |  | > 100 |  | 38 |  | 43.5
COc1ccc(NC(=O)C(=O)/C=C(\O)c2ccccc2)cc1 |  | > 10 |  |  |  | 4.18 |  | > 10 |  | > 10 |  | > 10 |  |  |  |  |  |  |  | > 10
C[C@@H]1O[C@@H](O[C@@H]2[C@@H](O)[C@H](OCCc3ccc(O)c(O)c3)O[C@H](CO)[C@H]2OC(=O)/C=C/c2ccc(O)c(O)c2)[C@H](O)[C@H](OC2OC[C@](O)(CO)[C@H]2O)[C@H]1O (stereo not given in full) | > 100 | > 100 | 35 | > 100 | > 100 | > 100 |  |  | > 100 | > 100 | > 100 | > 100 | > 100 | > 100 |  |  | 12 | 27.2 | > 100 | > 100
CCOC(=O)C1Nc2ccccc2[C@H]2OCC[C@@H]12 (stereo not given in full) |  | > 100 |  | > 100 |  | > 100 |  | > 100 |  | > 100 |  |  |  | > 100 |  | > 100 |  |  |  | > 100
CCCC(S(=O)(=O)c1ccccc1)S(=O)(=O)c1ccccc1 |  | > 100 |  | > 100 |  | > 100 |  | > 100 |  | > 100 |  |  |  | > 100 |  | > 100 |  |  |  | > 100
COc1cc2ncc3c(nc4sccn43)c2cc1OC | 30.1 | > 100 | 13.1 | 42 | 29.3 | > 100 |  |  | 28.7 | > 100 | 24.2 | 78.3 | 16.5 | 39.3 | 8.01 | > 100 | 37.1 | > 100 | 16.4 | 78.2
N#CCN1C(=O)c2cc([N+](=O)[O-])cc3cc([N+](=O)[O-])cc(c23)C1=O |  | > 100 |  | 27.1 |  | > 22.8 |  | 29.2 |  | 43.8 |  |  |  | > 55.6 |  | > 100 |  |  |  | 48.2
CNNC(=NS(=O)(=O)c1cc(C#N)c(NNC)cc1S)NNC |  | > 10 |  | > 10 |  | > 10 |  | > 10 |  | > 10 |  |  |  | > 10 |  | > 10 |  | > 10 |  | > 10
N#CNc1nc(N)c(-c2ccc(Cl)cc2)c(C(=O)Nc2nccs2)n1 |  |  |  | > 100 |  | > 100 |  | > 100 |  | > 100 |  |  |  | > 100 |  | > 100 |  |  |  | > 100
COc1ccc(OC(=O)CC2Cc3cc(OC)c(OC)c(OC)c3-c3ccc(SC)c(=O)cc32)cc1 (stereo not given) |  | 61.4 |  |  |  | > 100 |  | 0.503 |  | > 100 |  |  |  | > 100 |  | 2.57 |  |  |  | > 100
Cc1cc(=O)c2c(O)cc3c(c2o1)CC=C(COC1OC(COC2OC(CO)C(O)C(O)C2O)C(O)C(O)C1O)CO3 (stereo not given) |  | > 100 |  | > 100 |  | > 100 |  | > 100 |  | > 100 |  |  |  | > 100 |  |  |  |  |  | > 100
Cc1ccncc1C(N)=O | > 100 | > 100 | > 100 | > 100 | > 100 | > 100 | > 100 | > 100 | > 100 | > 100 | > 100 | > 100 | > 100 | > 100 | > 100 | > 100 |  |  | > 100 | > 100
O=C(NCCNCCO)c1cccc2ccc(-c3ccccc3)nc12 |  | 27.7 |  | 25.1 |  |  |  | 17.1 |  | 12.8 |  |  |  | 17.4 |  | 8.41 |  |  |  | 17.8
NNc1nnc(-c2nnc(NN)o2)o1 |  |  |  | > 10 |  | > 10 |  | > 10 |  | > 10 |  | > 10 |  | > 10 |  | > 10 |  | > 10 |  | > 10
O=Nc1c(-c2c(O)[nH]c3ncccc23)[nH]c2ccccc12 |  |  | > 100 | > 100 | 3.4 | > 100 | > 24.4 | > 100 | 5.71 | > 100 | 16 | > 100 | > 100 | > 100 | 1.93 | > 100 | 5.41 | > 100 | 10.8 | > 100
Cc1ccc(C2C3Cc4ccccc4C3=NN2c2ccc(S(=O)(=O)/N=c3\scc(-c4ccccc4)n3-c3ccccc3)cc2)cc1 (stereo not given) | 33.1 | > 100 | 16.6 | 43.7 | 12.8 | 31.1 |  |  | 19 | 60.1 | 14.9 | 32.7 | 18.7 | 37.8 | 14.9 | 36.1 | 18.8 | 43.3 | 30.6 | > 100
